One series addresses S. aureus MetRS (Staphylococcus aureus, UniProt Q5HII6). In words: S. aureus MetRS aminoacylation (functional charging) assay. The format is biochemical. As to the method: The activity of S. aureus MetRS was monitored by the aminoacylation reaction. The enzyme was diluted in 50 mM HEPES, pH 7.55, 5 mM DTT and 0.01% BSA. A typical 50 μL reaction mixture contained 30 mM HEPES, pH 7.5, 10 mM MgCl2, 30 mM KCl, 90 μM E. coli tRNA, 2 mM ATP and 5 μM [^3H]-methionine (10 Ci/mmol). The reaction was initiated by addition of enzyme at 25° C. At 4 different timepoints, 10 μL of the reaction was quenched into 150 μL cold 5% TCA on a Millipore filter plate. The filter plate is then washed three times with cold 5% TCA followed by water and then ethanol. The filter plate was dried before addition of 100 μL Packard Microscint-20 and counted on a Packard Top-Count microplate scintillation counter.
Inhibition studies were performed for the peptides against two of the substrates, ATP and methionine. This was done at varying concentrations of peptides by holding the concentration of one substrate at its K value (1.5 mM for ATP and 5 μM for methionine), while varying the other substrate concentration around its Km value. The initial velocity data obtained were then analyzed using GraFit.

The target of the next series is Sa MetRS (Staphylococcus aureus, UniProt Q5HII6). In words: Sa MetRS/Met1-F fluorescence polarization binding assay. As to the method: A non-radioactive, homogeneous, sensitive fluorescent polarization (FP) assay has been developed for Staphylococcus aureus MetRS (Sa MetRS) and Met1 peptide. FP is a ratiometric detection method which is capable of discriminating between free and bound states of fluorescently labeled tracer based on differences in the rotation rates of the two states. The Sa MetRS FP binding assay involves the incubation of fluorescently labeled Met1 peptide (Met1-F) with purified Sa MetRS. In the bound state, Met1-F is bound to Sa MetRS and an increase in polarization signal is detected using a FP detection system. In the free state, Met1-F is not bound to Sa MetRS and there is a decrease in polarization signal.
Sequence of Sa MetRS (Q5HII6 whole entry): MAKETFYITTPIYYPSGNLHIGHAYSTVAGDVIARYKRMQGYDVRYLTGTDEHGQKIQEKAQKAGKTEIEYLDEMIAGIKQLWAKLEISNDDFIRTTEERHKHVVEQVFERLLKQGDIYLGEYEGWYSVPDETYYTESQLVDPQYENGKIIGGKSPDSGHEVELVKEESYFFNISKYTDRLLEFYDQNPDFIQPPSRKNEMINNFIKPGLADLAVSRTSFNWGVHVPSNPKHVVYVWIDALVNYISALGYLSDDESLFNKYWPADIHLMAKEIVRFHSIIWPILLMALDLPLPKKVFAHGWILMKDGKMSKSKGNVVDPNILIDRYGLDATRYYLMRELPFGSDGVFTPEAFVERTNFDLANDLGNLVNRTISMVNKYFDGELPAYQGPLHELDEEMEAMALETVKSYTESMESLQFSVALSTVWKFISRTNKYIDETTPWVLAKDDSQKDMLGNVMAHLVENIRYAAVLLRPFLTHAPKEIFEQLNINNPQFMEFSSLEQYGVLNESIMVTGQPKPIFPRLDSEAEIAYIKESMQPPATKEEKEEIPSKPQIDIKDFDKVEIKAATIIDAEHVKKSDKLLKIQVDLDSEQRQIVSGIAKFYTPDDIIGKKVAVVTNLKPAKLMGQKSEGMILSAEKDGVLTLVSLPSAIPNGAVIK
A 96-well plate (Costar cat# 3915) was blocked for 1 hour at room temperature with 150 μL/well 2 mg/ml bovine serum albumin (BSA) (FisherBiotech cat# BP1600-100) in 0.1 M NaHCO3. The plate was then washed manually three times with 150 μL/well of TBS (10 mM Tris-HCl pH 8.0, 150 mM NaCl). […] The plate was then read in an LJL Analyst (LJL Biosystems, Sunnyvale Calif.) in fluorescent polarization mode.
The FP assay for Sa MetRS inhibition has been evaluated to see if it is amenable for high throughput screening (HTS) for drug discovery. […] The IC50 for Met1 was tested on the plate in duplicate and the results were consistent with previously determined values. […]
(In fluorescence polarisation assays a small probe gives low polarisation when free and higher when bound to something large.)

Peptide text beside a SMILES is read from it.

Usually IC50 stands for the concentration at which inhibition is half-maximal. What is called Ki is the dissociation constant of the complex between target and ligand, obtained from inhibition or displacement. One may read the solubility as the concentration that dissolves in the medium under given conditions. Low values mean a poorly soluble substance, high ones a readily soluble substance.

Sequence of S. aureus MetRS (Q5HII6 whole entry): as above

Regarding `CSCC[C@H](NC(=O)[C@@H]1CCCN1C(=O)[C@H](Cc1c[nH]c2ccccc12)NC(=O)[C@H](CCCNC(=N)N)NC(=O)[C@H](CC(C)C)NC(=O)[C@H](CCC(N)=O)NC(=O)[C@H](Cc1c[nH]c2ccccc12)NC(=O)[C@@H](NC(=O)[C@H](CC(N)=O)NC(=O)[C@@H]1CCCN1C(=O)[C@@H](N)CC(=O)O)[C@@H](C)O)C(=O)N[C@@H](Cc1c[nH]cn1)C(=O)O` [JT01, DPNTWQLRWPMH] (H-DPNTWQLRWPMH-OH; N-terminus and C-terminus assumed), the solubility is greater than 100 µM. Half-maximal inhibition against S. aureus MetRS (IC50) required 0.2 µM. Besides, on S. aureus MetRS (Kl (ATP), ATP varied, methionine held at 5 μM), the inhibition constant (Ki) was 13 nM. The Ki on S. aureus MetRS (Kl (methionine), methionine varied, ATP held at 1.5 mM) came to 138 nM. At Sa MetRS, the IC50 was found to be 700 nM.

The values are drawn from patent US6846625B1, “Method for identifying validated target and assay combination for drug development” (priority 1998, dated 2005).
